Each compound was assayed on sodium taurocholate-induced pancreatitis model (assay: Improvement effect on pancreatitis, sodium taurocholate-induced model in mice). Settings: 17.5 mg/kg caudal vein 1 h, 3 h and 6 h after model construction; after 24 hours; n = 10.
Type: in vivo, Blab/c mice
Design: Pancreatic histopathological injury score: scale not given here
Excerpt: In this example, the improvement effect of compounds 1 19 prepared in example 1 on […] measured. (1) Animals: Adult and Healthy Male Blab/c Mice, 25 30 g. […] A model was made with sodium taurocholate. […] After anesthesia, the surgical site was sterilized with an alcohol cotton ball. The sterile gauze was placed on the surgical site. A laparotomy was made at the width of two fingers under the xiphoid process. After seeing the liver, an incision was made, the cotton swab soaked in normal saline was stretched into the enterocoelia, the duodenum was sought on the back of the liver, turned out and placed on the sterile gauze, the pancreaticobiliary duct and duodenal papilla were sought, and the needle of 1 mL syringe was used to pierce a hole on the along the direction of the nipple, a 24 G indwelling needle tube was inserted into the pancreatic duct along the nipple, and the common bile duct below the liver was closed with an arterial vascular clip, with a dose of 0.1 mL/100 g and 0.1 mL/min inject sodium taurocholate with a concentration of 3.8% at a flow rate. During this process, pay attention to adding saline to the exposed pancreas and duodenum to keep it moist. After the injection, the tube was slowly taken out and the bile duct was continued to be closed. The main tube was removed from the vascular artery clip 3 minutes later, the duodenum was also accommodated, and the abdominal cavity was sutured in double layers. The blank control group was injected with equal volume of isotonic saline. […] The blank control group and the model control group were given equal volume of isotonic saline. After 24 hours, pancreatic tissue and blood samples were taken, and the pancreatic histopathological injury score and the level of pancreatic amylase in serum were evaluated.
In the case of `CNCCn1c(=O)c2c(ncn2C)n(C)c1=O` [Compound 11, 1-(2-methylaminoethyl)-3,7-dimethylxanthine], the “Amylopsin (pancreatic amylase level in serum)” value (“Amylopsin” below) is reported as 5 ± 3 KU/L and the “Pancreatic histopathological injury score” value is reported as 0.5 ± 0.2.
For `CCNCCn1c(=O)c2c(ncn2C)n(C)c1=O` [Compound 12, 1-(2-ethylaminoethyl)-3,7-dimethylxanthine], the “Amylopsin” value was 4 ± 2 KU/L and the “Pancreatic histopathological injury score” value was 0.4 ± 0.5.
For `CC(C)NCCn1c(=O)c2c(ncn2C)n(C)c1=O` [Compound 13, 1-(2-isopropylaminoethyl)-3,7-dimethylxanthine], the “Amylopsin” value was 6 ± 2 KU/L and the “Pancreatic histopathological injury score” value was 1.8 ± 0.2.
`CCCNCCn1c(=O)c2c(ncn2C)n(C)c1=O` [Compound 14, 1-(2-propylaminoethyl)-3,7-dimethylxanthine] was tested, and the “Amylopsin” value was 5 ± 3 KU/L and the “Pancreatic histopathological injury score” value was 1.9 ± 0.4.
With `CC(=O)CCn1c(=O)c2c(ncn2C)n(C)c1=O` [Compound 15, 1-(2-acetylethyl)-3,7-dimethylxanthine] the “Amylopsin” value was 5 ± 4 KU/L and the “Pancreatic histopathological injury score” value was 1.6 ± 0.4.
With `CCC(=O)CCn1c(=O)c2c(ncn2C)n(C)c1=O` [Compound 16, 1-(2-propionylethyl)-3,7-dimethylxanthine] the “Amylopsin” value was 5 ± 2 KU/L and the “Pancreatic histopathological injury score” value was 1.8 ± 0.3.
`CC(C)C(=O)NCCn1c(=O)c2c(ncn2C)n(C)c1=O` [Compound 17] was tested, and the “Amylopsin” value was 10 ± 3 KU/L and the “Pancreatic histopathological injury score” value was 1.5 ± 0.4.

What follows are compounds tested on arthritis model (assay: Improvement effect on arthritis, sodium iodoacetate knee joint model in SD rats). Settings: gavage every day 100 mg/kg/d; 4th week after operation; n = 10.
Type: in vivo
Design: Pathological tissue score (joint): scale not given here
Description: In this example, the improvement effect of compounds 1˜19 prepared in example 1 on arthritic was measured. (1) Animals: SD rats, four rates in one cage, were fed under the conditions of constant temperature (25±2° C.) and illumination control (12 h day/night circulation). The animals were fed with standard feed, and fed for at least 7 days to adapt environment before the experiment. […] (3) SD rats were fasted for 12 hours before operation, and weighed and recorded prior to operation. The blank control group was not treated any more. […] After anesthesia, they were fixed in the supine position. 0.1 ml of 1 g/L sodium iodoacetate solution was injected into the knee joint. From the fifth day, the animals were driven to run for 30 minutes every day, and they were allowed to move freely in the cage the rest of the time. After modeling, indomethacin and compounds 1˜19 were given by gavage every day at the dose of 100 mg/kg/d. The blank control group and the model control group were given equal volume of isotonic saline. At the 4th week after operation, the articular fluid of rats in each group was extracted to measure the content of MMP-13. The rats were killed, and the subchondral bone plate of the inner condyle of the tibia of the right knee was cut and processed into specimens, and pathological scores were made.
`CNCCn1c(=O)c2c(ncn2C)n(C)c1=O` [Compound 11, 1-(2-methylaminoethyl)-3,7-dimethylxanthine] was tested, and the “MMP-13 content in joint fluid” value was 86 ± 5 mg/L and the “Pathological tissue score (joint)” value was 0.3 ± 0.3.
In the case of `CCNCCn1c(=O)c2c(ncn2C)n(C)c1=O` [Compound 12, 1-(2-ethylaminoethyl)-3,7-dimethylxanthine], the “MMP-13 content in joint fluid” value is reported as 83 ± 8 mg/L and the “Pathological tissue score (joint)” value is reported as 0.3 ± 0.4.
For `CC(C)NCCn1c(=O)c2c(ncn2C)n(C)c1=O` [Compound 13, 1-(2-isopropylaminoethyl)-3,7-dimethylxanthine], the “MMP-13 content in joint fluid” value was 98 ± 5 mg/L and the “Pathological tissue score (joint)” value was 0.3 ± 0.5.
For `CCCNCCn1c(=O)c2c(ncn2C)n(C)c1=O` [Compound 14, 1-(2-propylaminoethyl)-3,7-dimethylxanthine], the “MMP-13 content in joint fluid” value was 93 ± 7 mg/L and the “Pathological tissue score (joint)” value was 0.7 ± 0.3.
With `CC(=O)CCn1c(=O)c2c(ncn2C)n(C)c1=O` [Compound 15, 1-(2-acetylethyl)-3,7-dimethylxanthine] the “MMP-13 content in joint fluid” value was 91 ± 7 mg/L and the “Pathological tissue score (joint)” value was 0.6 ± 0.5.
`CCC(=O)CCn1c(=O)c2c(ncn2C)n(C)c1=O` [Compound 16, 1-(2-propionylethyl)-3,7-dimethylxanthine] was tested, and the “MMP-13 content in joint fluid” value was 93 ± 9 mg/L and the “Pathological tissue score (joint)” value was 0.4 ± 0.3.
For `CC(C)C(=O)NCCn1c(=O)c2c(ncn2C)n(C)c1=O` [Compound 17], the “MMP-13 content in joint fluid” value was 99 ± 6 mg/L and the “Pathological tissue score (joint)” value was 0.5 ± 0.5.

What follows are compounds tested on mouse hepatitis model (assay: Improvement effect on hepatitis, concanavalin A (ConA) mouse hepatitis model). Settings: 6 h after administration; gavage 50 mg/kg; n = 10.
Type: in vivo, Blab/c mice
Description: In this example, the improvement effect of compounds 1 19 prepared in example 1 on […] measured. (1) Animals: Adult and Healthy Male Blab/c Mice, 25 30 g. […] The blank control group was injected with equal volume of isotonic saline. After modeling, indomethacin and compounds 1 19 were given by gavage every day at the dose of 50 mg/kg. The blank control group and the model control group were given equal volume of isotonic saline. Eyeball blood and liver tissue were taken at 6 h, 12 h, 24 h and 48 h after administration. The levels of serum alanine aminotransferase (ALT) and aspartate aminotransferase (AST) were measured.
With `CNCCn1c(=O)c2c(ncn2C)n(C)c1=O` [Compound 11, 1-(2-methylaminoethyl)-3,7-dimethylxanthine] the “Aspartate aminotransferase (AST)” value was 48 ± 7 U/L and the “Serum alanine aminotransferase (ALT)” value was 54 ± 6 U/L.
With `CCNCCn1c(=O)c2c(ncn2C)n(C)c1=O` [Compound 12, 1-(2-ethylaminoethyl)-3,7-dimethylxanthine] the “Aspartate aminotransferase (AST)” value was 58 ± 7 U/L and the “Serum alanine aminotransferase (ALT)” value was 76 ± 8 U/L.
For `CC(C)NCCn1c(=O)c2c(ncn2C)n(C)c1=O` [Compound 13, 1-(2-isopropylaminoethyl)-3,7-dimethylxanthine], the “Aspartate aminotransferase (AST)” value was 63 ± 7 U/L and the “Serum alanine aminotransferase (ALT)” value was 87 ± 9 U/L.
With `CCCNCCn1c(=O)c2c(ncn2C)n(C)c1=O` [Compound 14, 1-(2-propylaminoethyl)-3,7-dimethylxanthine] the “Aspartate aminotransferase (AST)” value was 65 ± 7 U/L and the “Serum alanine aminotransferase (ALT)” value was 56 ± 8 U/L.
With `CC(=O)CCn1c(=O)c2c(ncn2C)n(C)c1=O` [Compound 15, 1-(2-acetylethyl)-3,7-dimethylxanthine] the “Aspartate aminotransferase (AST)” value was 65 ± 7 U/L and the “Serum alanine aminotransferase (ALT)” value was 65 ± 8 U/L.
With `CCC(=O)CCn1c(=O)c2c(ncn2C)n(C)c1=O` [Compound 16, 1-(2-propionylethyl)-3,7-dimethylxanthine] the “Aspartate aminotransferase (AST)” value was 59 ± 7 U/L and the “Serum alanine aminotransferase (ALT)” value was 61 ± 8 U/L.
For `CC(C)C(=O)NCCn1c(=O)c2c(ncn2C)n(C)c1=O` [Compound 17], the “Aspartate aminotransferase (AST)” value was 65 ± 5 U/L and the “Serum alanine aminotransferase (ALT)” value was 79 ± 8 U/L.

Same assay, conditions: 12 h after administration; gavage 50 mg/kg; n = 10
With `CNCCn1c(=O)c2c(ncn2C)n(C)c1=O` [Compound 11, 1-(2-methylaminoethyl)-3,7-dimethylxanthine] the “Aspartate aminotransferase (AST)” value was 89 ± 8 U/L and the “Serum alanine aminotransferase (ALT)” value was 92 ± 9 U/L.
In the case of `CCNCCn1c(=O)c2c(ncn2C)n(C)c1=O` [Compound 12, 1-(2-ethylaminoethyl)-3,7-dimethylxanthine], the “Aspartate aminotransferase (AST)” value is reported as 93 ± 9 U/L and the “Serum alanine aminotransferase (ALT)” value is reported as 113 ± 12 U/L.
For `CC(C)NCCn1c(=O)c2c(ncn2C)n(C)c1=O` [Compound 13, 1-(2-isopropylaminoethyl)-3,7-dimethylxanthine], the “Aspartate aminotransferase (AST)” value was 102 ± 12 U/L and the “Serum alanine aminotransferase (ALT)” value was 121 ± 13 U/L.
For `CCCNCCn1c(=O)c2c(ncn2C)n(C)c1=O` [Compound 14, 1-(2-propylaminoethyl)-3,7-dimethylxanthine], the “Aspartate aminotransferase (AST)” value was 93 ± 12 U/L and the “Serum alanine aminotransferase (ALT)” value was 134 ± 15 U/L.
For `CC(=O)CCn1c(=O)c2c(ncn2C)n(C)c1=O` [Compound 15, 1-(2-acetylethyl)-3,7-dimethylxanthine], the “Aspartate aminotransferase (AST)” value was 118 ± 18 U/L and the “Serum alanine aminotransferase (ALT)” value was 171 ± 15 U/L.
In the case of `CCC(=O)CCn1c(=O)c2c(ncn2C)n(C)c1=O` [Compound 16, 1-(2-propionylethyl)-3,7-dimethylxanthine], the “Aspartate aminotransferase (AST)” value is reported as 93 ± 11 U/L and the “Serum alanine aminotransferase (ALT)” value is reported as 101 ± 16 U/L.
For `CC(C)C(=O)NCCn1c(=O)c2c(ncn2C)n(C)c1=O` [Compound 17], the “Aspartate aminotransferase (AST)” value was 102 ± 12 U/L and the “Serum alanine aminotransferase (ALT)” value was 145 ± 13 U/L.

Same assay, conditions: 24 h after administration; gavage 50 mg/kg; n = 10
`CNCCn1c(=O)c2c(ncn2C)n(C)c1=O` [Compound 11, 1-(2-methylaminoethyl)-3,7-dimethylxanthine] was tested, and the “Aspartate aminotransferase (AST)” value was 112 ± 12 U/L and the “Serum alanine aminotransferase (ALT)” value was 142 ± 14 U/L.
With `CCNCCn1c(=O)c2c(ncn2C)n(C)c1=O` [Compound 12, 1-(2-ethylaminoethyl)-3,7-dimethylxanthine] the “Aspartate aminotransferase (AST)” value was 121 ± 19 U/L and the “Serum alanine aminotransferase (ALT)” value was 162 ± 16 U/L.
`CC(C)NCCn1c(=O)c2c(ncn2C)n(C)c1=O` [Compound 13, 1-(2-isopropylaminoethyl)-3,7-dimethylxanthine] was tested, and the “Aspartate aminotransferase (AST)” value was 132 ± 13 U/L and the “Serum alanine aminotransferase (ALT)” value was 172 ± 17 U/L.
For `CCCNCCn1c(=O)c2c(ncn2C)n(C)c1=O` [Compound 14, 1-(2-propylaminoethyl)-3,7-dimethylxanthine], the “Aspartate aminotransferase (AST)” value was 152 ± 15 U/L and the “Serum alanine aminotransferase (ALT)” value was 193 ± 12 U/L.
`CC(=O)CCn1c(=O)c2c(ncn2C)n(C)c1=O` [Compound 15, 1-(2-acetylethyl)-3,7-dimethylxanthine] was tested, and the “Aspartate aminotransferase (AST)” value was 198 ± 18 U/L and the “Serum alanine aminotransferase (ALT)” value was 218 ± 26 U/L.
In the case of `CCC(=O)CCn1c(=O)c2c(ncn2C)n(C)c1=O` [Compound 16, 1-(2-propionylethyl)-3,7-dimethylxanthine], the “Aspartate aminotransferase (AST)” value is reported as 121 ± 12 U/L and the “Serum alanine aminotransferase (ALT)” value is reported as 132 ± 12 U/L.
In the case of `CC(C)C(=O)NCCn1c(=O)c2c(ncn2C)n(C)c1=O` [Compound 17], the “Aspartate aminotransferase (AST)” value is reported as 119 ± 12 U/L and the “Serum alanine aminotransferase (ALT)” value is reported as 163 ± 16 U/L.

Same assay, conditions: 48 h after administration; gavage 50 mg/kg; n = 10
For `CNCCn1c(=O)c2c(ncn2C)n(C)c1=O` [Compound 11, 1-(2-methylaminoethyl)-3,7-dimethylxanthine], the “Aspartate aminotransferase (AST)” value was 95 ± 9 U/L and the “Serum alanine aminotransferase (ALT)” value was 110 ± 13 U/L.
With `CCNCCn1c(=O)c2c(ncn2C)n(C)c1=O` [Compound 12, 1-(2-ethylaminoethyl)-3,7-dimethylxanthine] the “Aspartate aminotransferase (AST)” value was 102 ± 9 U/L and the “Serum alanine aminotransferase (ALT)” value was 121 ± 13 U/L.
For `CC(C)NCCn1c(=O)c2c(ncn2C)n(C)c1=O` [Compound 13, 1-(2-isopropylaminoethyl)-3,7-dimethylxanthine], the “Aspartate aminotransferase (AST)” value was 93 ± 9 U/L and the “Serum alanine aminotransferase (ALT)” value was 143 ± 12 U/L.
For `CCCNCCn1c(=O)c2c(ncn2C)n(C)c1=O` [Compound 14, 1-(2-propylaminoethyl)-3,7-dimethylxanthine], the “Aspartate aminotransferase (AST)” value was 119 ± 12 U/L and the “Serum alanine aminotransferase (ALT)” value was 132 ± 13 U/L.
`CC(=O)CCn1c(=O)c2c(ncn2C)n(C)c1=O` [Compound 15, 1-(2-acetylethyl)-3,7-dimethylxanthine] was tested, and the “Aspartate aminotransferase (AST)” value was 129 ± 9 U/L and the “Serum alanine aminotransferase (ALT)” value was 132 ± 12 U/L.
With `CCC(=O)CCn1c(=O)c2c(ncn2C)n(C)c1=O` [Compound 16, 1-(2-propionylethyl)-3,7-dimethylxanthine] the “Aspartate aminotransferase (AST)” value was 103 ± 9 U/L and the “Serum alanine aminotransferase (ALT)” value was 104 ± 13 U/L.
`CC(C)C(=O)NCCn1c(=O)c2c(ncn2C)n(C)c1=O` [Compound 17] was tested, and the “Aspartate aminotransferase (AST)” value was 107 ± 11 U/L and the “Serum alanine aminotransferase (ALT)” value was 142 ± 15 U/L.

From patent US20260083743A1, “NUCLEOSIDE DERIVATIVE FOR PREVENTING AND TREATING INFLAMMATION AND APPLICATION THEREOF” (WEST CHINA HOSPITAL OF SICHUAN UNIVERSITY, priority 2019, published 2026)
